Experimental data: patent US6352976B1, “Selective inhibitors of MMP-12” (Aventis Pharmaceuticals Inc., priority 1998, dated 2002)
Where a name gives a salt, the structure may show the parent alone.

Assays:
[1] = molecular target: T1, MMP-3 (Stromelysin-1) (Homo sapiens, UniProt P08254); test: Determination of inhibition constant (Ki) for MMP-3, fluorogenic substrate; format: biochemical; details: pH 7.6
T1 construct: The active MMP-3 was obtained by treatment of proMMP-3 with trypsin; endogenous in cells; host or cells: human rheumatoid synovial fibroblasts stimulated with macrophage-conditioned medium; secreted proenzyme purified from culture medium
T1 sequence (P08254 100-477): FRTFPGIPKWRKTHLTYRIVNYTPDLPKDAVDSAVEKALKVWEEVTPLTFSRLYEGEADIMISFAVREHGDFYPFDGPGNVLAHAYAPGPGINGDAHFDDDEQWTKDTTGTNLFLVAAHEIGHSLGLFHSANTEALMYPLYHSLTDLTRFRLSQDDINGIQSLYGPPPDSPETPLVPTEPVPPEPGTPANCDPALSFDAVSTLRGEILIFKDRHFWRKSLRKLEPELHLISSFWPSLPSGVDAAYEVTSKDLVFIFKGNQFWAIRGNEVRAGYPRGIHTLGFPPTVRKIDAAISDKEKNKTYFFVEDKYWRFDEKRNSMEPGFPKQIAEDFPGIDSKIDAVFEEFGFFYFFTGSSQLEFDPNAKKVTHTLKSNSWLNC
Method: (§1) ProMMP-3 (EC3.4.24.17; Stromelysin-1) was purified from culture medium of human rheumatoid synovial fibroblasts stimulated with macrophage-conditioned medium according to Okada, Y. et al., J. Biol. Chem. 261, 14245-14255 (1986). The active MMP-3 was obtained by treatment of proMMP-3 with trypsin (5 μg/mL) at 37° C. for 30 minutes, followed by addition of soybean trypsin inhibitor (50 μg/mL). Aliquots of the activated MMP-3 were stored at −20° C.
(§2) The activated MMP-3 is assayed using a fluorogenic substrate, Mca-Pro-Leu-Gly-Leu-Dpa-Ala-Arg-NH2, Knight, C. G. et al., FEBS Lett. 296, 263-266 (1992), at 37° C. in an assay buffer containing 50 mM Tris, pH 7.6, 0.2 M sodium chloride, 50 mM calcium chloride, and 0.02% Brij-35. The increase in fluorescence due to cleavage of Gly-Leu peptide bond by MMP-3 was monitored with Perkin-Elmer LS50B Fluorimeter (λex 328 nm, λem 393 nm, excitation slit 2.5, emission slit 10). Substrate and inhibitor stock solutions were made in DMF and 0.1% HCl-DMF, respectively. For determination of Ki values for MMP-3 inhibitors, a series of intermediate inhibitor solutions were prepared in 0.1% HCl-DMF and 1 or 2 μL of the diluted inhibitor solution was mixed with 1 μL of 2 mM substrate solution in DMF in a quartz cuvette containing 2 mL of assay buffer. The enzyme (10 μL of 0.2 μM MMP-3 dilution in assay buffer) was added at the last to start the reaction. For routine measurement of a Ki value for a reversible, competitive inhibitor, the initial rates in the presence of at least four inhibitor concentrations (two concentrations above Ki and two concentrations below Ki) were measured using [S]=1 μM (<<Km) and [MMP-3]=1 nM. Under these conditions, the measured Ki, app is close to true Ki.
(§3) The Ki for a competitive inhibitor is calculated using: v0/vi=(1+[I]/Ki, app) and Ki=Ki, app/(1+[S]/Km), where v0 is the initial rate in the absence of inhibitor, vi is the initial rate in the presence of inhibitor at the concentration of [I], [S] is the substrate concentration, and Km is the Michaelis constant. If slow binding is observed (i.e. if the approach to the binding equilibrium is slow), the final steady-state rate rather than the initial rate is taken as vi.

[2] = molecular target: T2, MMP-1 (interstitial collagenase) (Homo sapiens, UniProt P03956); test: Determination of inhibition constant (Ki) for MMP-1, fluorogenic substrate; format: biochemical; details: pH 7.6
T2 construct: The active MMP-1 was obtained by treatment of proMMP-1 with trypsin; endogenous in cells; host or cells: human rheumatoid synovial fibroblasts stimulated with macrophage-conditioned medium; secreted proenzyme purified from culture medium
T2 sequence (P03956 100-469): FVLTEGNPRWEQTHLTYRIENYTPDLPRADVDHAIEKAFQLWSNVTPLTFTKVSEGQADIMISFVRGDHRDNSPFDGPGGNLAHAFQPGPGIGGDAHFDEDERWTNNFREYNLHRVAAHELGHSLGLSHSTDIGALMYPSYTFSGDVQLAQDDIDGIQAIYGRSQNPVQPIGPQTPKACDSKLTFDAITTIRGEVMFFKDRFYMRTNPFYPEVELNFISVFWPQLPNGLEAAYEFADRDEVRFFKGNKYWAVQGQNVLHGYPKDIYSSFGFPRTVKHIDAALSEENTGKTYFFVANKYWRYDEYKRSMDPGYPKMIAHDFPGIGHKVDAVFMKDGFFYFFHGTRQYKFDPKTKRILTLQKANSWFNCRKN
Method: as §1, with “ProMMP-1 (EC3.4.24.7; interstitial collagenase)” for “ProMMP-3 (EC3.4.24.17; Stromelysin-1)”, “MMP-1” for “MMP-3”, “proMMP-1” for “proMMP-3”, “μg/mL).” for “μg/mL). Aliquots of the activated MMP-3 were stored at −20° C.”
as §2, with “activated MMP-1” for “activated MMP-3”, “in 2.0 mL of” for “in an”, “in DMF.” for “in DMF and 0.1% HCl-DMF, respectively.”, “for MMP-1” for “for MMP-3”, “in DMF” for “in 0.1% HCl-DMF”, “and [MMP-1]=0.8” for “and [MMP-3]=1”
as §3

[3] = Table 1, Mca-Pro-Leu-Gly-Leu-Dpa-Ala-Arg-NH2, 37° C.

| Ki [1, 3] [nM] | Ki [2, 3] [nM] | Ki ([1]; Table 2 (comparative), method of Example C, 37° C.) [nM] | Ki ([2]; Table 2 (comparative), method of Example A, 37° C.) [nM] | SMILES |
| --- | --- | --- | --- | --- |
| 449 | 153 |  |  | CSCC[C@H](NC(=O)[C@@H](S)C(C)C)C(=O)N[C@@H](Cc1ccccc1)C(=O)O [Example 4, (S)-2-Mercapto-3-methylbutyroyl-(L)-methionyl-(L)-phenylalanine] |
| 1410 | 518 |  |  | CC(C)C[C@H](NC(=O)[C@@H](S)C(C)C)C(=O)N[C@@H](Cc1ccccc1)C(=O)O [Example 3, (S)-2-Mercapto-3-methylbutyroyl-(L)-leucyl-(L)-phenylalanine] |
|  |  | 10 | 465 | CNC(=O)[C@H](Cc1ccccc1)NC(=O)[C@H](CCc1ccccc1)NC(=O)C(S)C(C)C (stereo partly drawn) [Example 7, (S)-2-Mercapto-3-methylbutyroyl-(L)-homo-phenylalanyl-(L)-phenylalanine N-methyl amide, reference compound] |
| 1550 | 3910 |  |  | CC(C)[C@H](S)C(=O)N[C@@H](CCCCN)C(=O)N[C@@H](Cc1ccccc1)C(=O)O [Example 5, (S)-2-Mercapto-3-methylbutyroyl-(L)-lysyl-(L)-phenylalanine trifluoroacetic acid salt] |
